Reference: ChEMBL document CHEMBL5528048, “Discovery of Novel Potent and Fast BTK PROTACs for the Treatment of Osteoclasts-Related Inflammatory Diseases” (J Med Chem, 2024)
Active and inactive are the calls of the source. The calls are words filed in the database; no cut-off is given here.

Key:
[1] = biological target: T1, Protein cereblon/Tyrosine-protein kinase BTK (Homo sapiens, UniProt Q06187+Q96SW2); experiment: PROTAC activity at BTK/CRBN in human MINO cells assessed as BTK protein degradation at 100 nM measured after 24 hrs by Western blotting analysis relative to control; type: cell-based
Target sequence in this assay (Q06187 2-659 limits assumed): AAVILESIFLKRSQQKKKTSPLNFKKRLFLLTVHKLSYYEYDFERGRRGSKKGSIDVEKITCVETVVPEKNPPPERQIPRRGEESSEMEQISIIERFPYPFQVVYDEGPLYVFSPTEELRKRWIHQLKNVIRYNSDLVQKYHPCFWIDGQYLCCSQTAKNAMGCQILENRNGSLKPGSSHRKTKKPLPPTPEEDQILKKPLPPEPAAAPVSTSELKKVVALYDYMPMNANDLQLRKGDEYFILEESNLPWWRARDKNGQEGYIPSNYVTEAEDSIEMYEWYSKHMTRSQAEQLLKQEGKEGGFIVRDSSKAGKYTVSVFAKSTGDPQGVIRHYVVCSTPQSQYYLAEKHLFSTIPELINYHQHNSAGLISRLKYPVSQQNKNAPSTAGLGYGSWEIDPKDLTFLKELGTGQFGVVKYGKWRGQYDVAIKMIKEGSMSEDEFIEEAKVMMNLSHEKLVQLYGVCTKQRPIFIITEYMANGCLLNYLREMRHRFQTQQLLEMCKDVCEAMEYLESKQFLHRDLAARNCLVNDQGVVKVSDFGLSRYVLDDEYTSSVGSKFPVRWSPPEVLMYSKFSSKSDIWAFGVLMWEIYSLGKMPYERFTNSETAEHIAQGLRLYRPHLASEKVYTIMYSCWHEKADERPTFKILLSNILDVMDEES
Target sequence in this assay (Q96SW2 whole entry partner): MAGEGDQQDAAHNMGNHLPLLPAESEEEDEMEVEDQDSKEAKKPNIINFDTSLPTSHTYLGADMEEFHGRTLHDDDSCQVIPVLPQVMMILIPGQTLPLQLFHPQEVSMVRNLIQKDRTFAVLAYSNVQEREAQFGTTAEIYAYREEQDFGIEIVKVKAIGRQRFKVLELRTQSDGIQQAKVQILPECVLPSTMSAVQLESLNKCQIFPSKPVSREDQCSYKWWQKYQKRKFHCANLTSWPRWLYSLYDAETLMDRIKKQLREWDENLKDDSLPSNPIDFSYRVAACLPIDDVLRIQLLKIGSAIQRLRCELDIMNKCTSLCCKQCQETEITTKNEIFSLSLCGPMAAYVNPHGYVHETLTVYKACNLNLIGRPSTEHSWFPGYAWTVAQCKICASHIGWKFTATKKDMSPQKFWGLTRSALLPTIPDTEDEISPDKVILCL

[2] = biological target: T1, Protein cereblon/Tyrosine-protein kinase BTK; experiment: PROTAC activity at BTK/CRBN in human MINO cells assessed as BTK protein degradation at 20 nM measured after 24 hrs by Western blotting analysis relative to control; type: cell-based
Target sequence in this assay (Q06187 2-659 limits assumed): as the sequence (Q06187 2-659 limits assumed) above
Target sequence in this assay (Q96SW2 whole entry partner): as the sequence (Q96SW2 whole entry partner) above

[3] = biological target: T1, Protein cereblon/Tyrosine-protein kinase BTK; experiment: PROTAC activity at BTK/CRBN in human MINO cells assessed as BTK protein degradation measured for 4 hrs by Western blotting analysis; type: cell-based
Target sequence in this assay (Q06187 whole entry): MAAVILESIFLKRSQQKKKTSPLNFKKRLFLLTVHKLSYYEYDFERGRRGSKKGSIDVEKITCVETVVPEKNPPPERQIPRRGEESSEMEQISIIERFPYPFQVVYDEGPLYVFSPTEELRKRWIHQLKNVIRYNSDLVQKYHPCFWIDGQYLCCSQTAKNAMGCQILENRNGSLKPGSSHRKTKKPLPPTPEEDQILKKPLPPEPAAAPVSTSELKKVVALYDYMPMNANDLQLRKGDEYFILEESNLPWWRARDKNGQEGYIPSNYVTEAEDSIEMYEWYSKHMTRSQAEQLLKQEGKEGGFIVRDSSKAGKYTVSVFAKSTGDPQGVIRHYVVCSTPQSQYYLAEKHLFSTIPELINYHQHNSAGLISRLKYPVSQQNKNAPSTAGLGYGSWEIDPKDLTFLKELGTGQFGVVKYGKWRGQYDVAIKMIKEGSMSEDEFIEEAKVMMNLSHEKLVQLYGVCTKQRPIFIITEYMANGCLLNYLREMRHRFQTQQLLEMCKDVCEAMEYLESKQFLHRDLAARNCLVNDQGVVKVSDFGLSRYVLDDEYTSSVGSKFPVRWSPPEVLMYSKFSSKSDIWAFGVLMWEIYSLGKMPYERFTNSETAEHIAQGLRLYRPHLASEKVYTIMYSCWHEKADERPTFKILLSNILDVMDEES
Target sequence in this assay (Q96SW2 whole entry): as the sequence (Q96SW2 whole entry partner) above

[4] = biological target: T1, Protein cereblon/Tyrosine-protein kinase BTK; experiment: PROTAC activity at BTK/CRBN in human MINO cells assessed as BTK protein degradation half life at 20 nM by Western blotting analysis; type: cell-based
Target sequence in this assay (Q06187 2-659 limits assumed): as the sequence (Q06187 2-659 limits assumed) above
Target sequence in this assay (Q96SW2 whole entry partner): as the sequence (Q96SW2 whole entry partner) above

[5] = biological target: T1, Protein cereblon/Tyrosine-protein kinase BTK; experiment: PROTAC activity at BTK/CRBN in human MINO cells assessed as BTK protein degradation by measuring onset time activity at 20 nM by Western blotting analysis; type: cell-based
Target sequence in this assay (Q06187 2-659 limits assumed): as the sequence (Q06187 2-659 limits assumed) above
Target sequence in this assay (Q96SW2 whole entry partner): as the sequence (Q96SW2 whole entry partner) above

[6] = biological target: T1, Protein cereblon/Tyrosine-protein kinase BTK; experiment: PROTAC activity at BTK/CRBN in human MINO cells assessed as BTK protein degradation at 20 nM measured after 4 to 8 hrs by Western blotting analysis; type: cell-based; conditions: time 4-8 hrs
Target sequence in this assay (Q06187 2-659 limits assumed): as the sequence (Q06187 2-659 limits assumed) above
Target sequence in this assay (Q96SW2 whole entry partner): as the sequence (Q96SW2 whole entry partner) above

[7] = biological target: T1, Protein cereblon/Tyrosine-protein kinase BTK; experiment: PROTAC activity at BTK/CRBN in human MINO cells assessed as BTK protein degradation at 20 nM by Western blotting analysis; type: cell-based; conditions: time lower 2.0 hrs, time upper […], TDE = time-dependent effect
Target sequence in this assay (Q06187 2-659 limits assumed): as the sequence (Q06187 2-659 limits assumed) above
Target sequence in this assay (Q96SW2 whole entry partner): as the sequence (Q96SW2 whole entry partner) above

[8] = biological target: T1, Protein cereblon/Tyrosine-protein kinase BTK; experiment: PROTAC activity at BTK/CRBN in human MINO cells assessed as BTK protein degradation measured for 24 hrs by Western blotting analysis; type: cell-based
Target sequence in this assay (Q06187 whole entry): as the sequence (Q06187 whole entry) above
Target sequence in this assay (Q96SW2 whole entry): as the sequence (Q96SW2 whole entry partner) above

[9] = biological target: T2, Tyrosine-protein kinase BTK (Homo sapiens, UniProt Q06187); experiment: Binding affinity to BTK (unknown origin) assessed as inhibition constant measured after 60 mins incubation by microtiter-plate reader
[10] = biological target: Protein cereblon (Homo sapiens, UniProt Q96SW2); experiment: Inhibition of CRBN (unknown origin) measured after 60 mins incubation by BMG reader
[11] = biological target: T1, Protein cereblon/Tyrosine-protein kinase BTK; experiment: Binding affinity to BTK/CRBN (unknown origin) assessed as ternary complex formation measured after 60 mins incubation by HTRF assay
Target sequence in this assay (Q06187 whole entry): as the sequence (Q06187 whole entry) above
Target sequence in this assay (Q96SW2 whole entry): as the sequence (Q96SW2 whole entry partner) above

[12] = biological target: T1, Protein cereblon/Tyrosine-protein kinase BTK; experiment: Binding affinity to BTK/CRBN (unknown origin) assessed as ternary complex formation by measuring peak HTRF ratio at wavelength 665/620 nm measured after 60 mins incubation by HTRF assay
[13] = biological target: T1, Protein cereblon/Tyrosine-protein kinase BTK; experiment: Binding affinity to BTK/CRBN (unknown origin) assessed as ternary complex formation by measuring peak concentration measured after 60 mins incubation by HTRF assay
[14] = biological target: T2, Tyrosine-protein kinase BTK; experiment: Inhibition of BTK (unknown origin) measured after 60 mins incubation by microtiter-plate reader
[15] = biological target: T1, Protein cereblon/Tyrosine-protein kinase BTK; experiment: PROTAC activity at BTK/CRBN in human MINO cells assessed as BTK protein degradation at 20 nM measured after 48 hrs by Western blotting analysis; type: cell-based
[16] = AUC (0 to infinity) in Sprague-Dawley rat at 4 mg/kg, ip measured upto 48 hrs; type: ADME, organism-based; conditions: in vivo
[17] = Cmax in Sprague-Dawley rat at 4 mg/kg, ip measured upto 48 hrs; type: ADME, organism-based; conditions: in vivo
[18] = AUC (0 to t) in Sprague-Dawley rat at 4 mg/kg, ip measured upto 48 hrs; type: ADME, organism-based; conditions: in vivo

T2 sequence (Q06187 whole entry): as the sequence (Q06187 whole entry) above
Chain of Protein cereblon (Q96SW2 whole entry): as the sequence (Q96SW2 whole entry partner) above

O=C1CCC(N2C(=O)c3ccc(N4CC(CN5CCN(c6ccc(Nc7ncc(F)c(N8CCC[C@@H](N9CCOC9=O)C8)n7)cc6)CC5)C4)cc3C2=O)C(=O)N1 (some centres undefined)
Activity [1]: < 10%

Cc1cc(-c2nc(Nc3ccn(C4CCN(CC5CCN(c6ccc7c(c6)C(=O)N(C6CCC(=O)NC6=O)C7=O)CC5)CC4)n3)ncc2F)ccc1CNC(=O)c1cnc(C(C)(C)C)s1 (centres undefined)
Activity [1]: 16%
Activity [2]: 0%

NC(=O)c1ncc(N2CCCCC2)nc1Nc1ccc(C2CCN(C[C@@H]3CCN(c4ccc5c(c4)C(=O)N(C4CCC(=O)NC4=O)C5=O)C3)CC2)cc1 (some centres undefined)
Activity [1]: 99%
DC50 [3]: 4.86 nM
Activity [2]: 96%
T1/2 [4]: 1.25 h
TIME [5]: < 1 h

Cn1cc(Nc2nc(Nc3ccc(N4CCN(CC5CN(c6ccc7c(c6)C(=O)N(C6CCC(=O)NC6=O)C7=O)C5)CC4)cc3)ncc2F)cn1 (centres undefined)
Activity [1]: 11%

O=C1CCC(N2C(=O)c3ccc(N4CCC(CN5CCC(C#Cc6ccc(Nc7ncc(F)c(N8CCC(CO)CC8)n7)cn6)CC5)CC4)cc3C2=O)C(=O)N1 (centres undefined)
Activity [1]: 35%

CC#CC(=O)Nc1cccc(Nc2nc(Nc3ccc(N4CCN(C5CN(c6ccc7c(c6)C(=O)N(C6CCC(=O)NC6=O)C7=O)C5)CC4)cc3)ncc2F)c1 (centres undefined)
Activity [1]: 70%

Cc1cc(-c2nc(Nc3cnn(C4CN(CC5CCN(c6ccc7c(c6)C(=O)N(C6CCC(=O)NC6=O)C7=O)CC5)C4)c3)ncc2F)ccc1CNC(=O)c1ccc(C(C)(C)C)cc1 (centres undefined)
Activity [1]: 29%
Activity [2]: 0%

Cc1cc(-c2nc(Nc3ccn(C4CCN(CC5CCN(c6ccc7c(c6)C(=O)N(C6CCC(=O)NC6=O)C7=O)CC5)CC4)n3)ncc2F)ccc1CNC(=O)c1noc(C(C)(C)C)n1 (centres undefined)
Activity [6]: Active
Activity [1]: 99%
Activity [7]: Tde
DC50 [3]: 10.3 nM
Activity [2]: 98%
T1/2 [4]: 1.1 h

Cc1cc(-c2nc(Nc3cnn(C4CCN(CC5CCN(c6ccc7c(c6)C(=O)N(C6CCC(=O)NC6=O)C7=O)CC5)CC4)c3)ncc2F)ccc1CNC(=O)N1CC(OC(C)C)C1 (centres undefined)
Activity [1]: 95%
Activity [2]: 80%

O=C1CCC(N2C(=O)c3ccc(N4CCC(N5CCN(c6ccc(Nc7ncc(F)c(N8CCC(CO)CC8)n7)cc6)CC5)CC4)cc3C2=O)C(=O)N1 (centres undefined)
Activity [1]: < 10%

C=CC(=O)Nc1cccc(Nc2nc(Nc3ccc(N4CCN(C5CN(c6ccc7c(c6)C(=O)N(C6CCC(=O)NC6=O)C7=O)C5)CC4)cc3)ncc2F)c1 (centres undefined)
Activity [1]: < 10%

Cc1cc(-c2nc(Nc3ccn(C4CN(CC5CCN(c6ccc7c(c6)C(=O)N(C6CCC(=O)NC6=O)C7=O)CC5)C4)n3)ncc2F)ccc1CNC(=O)c1noc(C(C)(C)C)n1 (centres undefined)
Activity [1]: 99%
Activity [2]: 78%

O=C1CCC(N2C(=O)c3ccc(N4CC(CN5CCN(c6ccc(Nc7ncc(F)c(-n8cccn8)n7)cc6)CC5)C4)cc3C2=O)C(=O)N1 (centres undefined)
Activity [1]: < 10%

O=C1CCC(N2C(=O)c3ccc(N4CCC(CN5CCN(c6ccc(Nc7ncc(F)c(N8CCC(CO)CC8)n7)cc6)CC5)CC4)cc3C2=O)C(=O)N1 (centres undefined)
Activity [1]: 25%

Cc1cc(-c2nc(Nc3ccn(C4CCN(CC5CCN(c6ccc7c(c6)C(=O)N(C6CCC(=O)NC6=O)C7=O)CC5)CC4)n3)ncc2F)ccc1CNC(=O)c1noc(C2CC2)n1 (centres undefined)
Activity [1]: 63%
Activity [2]: 0%

Cc1cc(-c2nc(Nc3cnn(C4CCN(CC5CCN(c6ccc(C7CCC(=O)NC7=O)cc6F)CC5)CC4)c3)ncc2F)ccc1CNC(=O)c1cn(C(C)(C)C)nn1 (centres undefined)
Activity [1]: 57%

CN1CCN([C@@H]2CCCN(c3nc(Nc4ccc(N5CCN(CC6CN(c7ccc8c(c7)C(=O)N(C7CCC(=O)NC7=O)C8=O)C6)CC5)cc4)ncc3F)C2)C1=O (some centres undefined)
Activity [1]: < 10%

C#CC(=O)Nc1cccc(Nc2nc(Nc3ccc(N4CCN(C5CN(c6ccc7c(c6)C(=O)N(C6CCC(=O)NC6=O)C7=O)C5)CC4)cc3)ncc2F)c1 (centres undefined)
Activity [1]: 54%

O=C1CCC(N2C(=O)c3ccc(N4CCC(CN5CCN(c6ccc(Nc7ncc(F)c(N8CCC(CO)CC8)n7)cn6)CC5)CC4)cc3C2=O)C(=O)N1 (centres undefined)
Activity [1]: 20%

O=C1CCC(N2C(=O)c3ccc(N4CCC(CN5CCN(c6ccc(Nc7ncc(F)c(N8CCC[C@@H](N9CCOC9=O)C8)n7)cc6)CC5)CC4)cc3C2=O)C(=O)N1 (some centres undefined)
Activity [1]: 39%

O=C1CCC(N2C(=O)c3ccc(N4CC(CN5CCN(c6ccc(Nc7ncc(F)c(N8CCC(CO)CC8)n7)cn6)CC5)C4)cc3C2=O)C(=O)N1 (centres undefined)
Activity [1]: < 10%

Nc1ncnc2c1c(-c1ccc(Oc3ccccc3)cc1)nn2C1CCN(C(=O)CN2CCN(CC3CN(c4ccc5c(c4)C(=O)N(C4CCC(=O)NC4=O)C5=O)C3)CC2)CC1 (centres undefined)
Activity [1]: 99%
Activity [7]: Tde
DC50 [8]: 7.07 nM
Ki [9]: 50.3 nM
IC50 [10]: 285 nM
EC50 [11]: 2.74 nM
Ratio [12]: 13.1
Activity [13]: 37 nM
DC50 [3]: 18.9 nM
IC50 [14]: 95.5 nM
Activity [15]: Active
Activity [2]: 95%
T1/2 [4]: 1.51 h
TIME [5]: < 1 h

CN1CCN([C@@H]2CCCN(c3nc(Nc4ccc(N5CCN(CC6CCN(c7ccc8c(c7)C(=O)N(C7CCC(=O)NC7=O)C8=O)CC6)CC5)cc4)ncc3F)C2)C1=O (some centres undefined)
Activity [1]: 30%

O=C(/C=C/C(F)(F)F)Nc1cccc(Nc2nc(Nc3ccc(N4CCN(C5CN(c6ccc7c(c6)C(=O)N(C6CCC(=O)NC6=O)C7=O)C5)CC4)cc3)ncc2F)c1 (centres undefined)
Activity [1]: 26%

Cc1cc(-c2nc(Nc3ccn(C4CCN(CC5CCN(c6ccc7c(c6)C(=O)N(C6CCC(=O)NC6=O)C7=O)CC5)CC4)n3)ncc2F)ccc1CNC(=O)c1cn(C2CC2)nn1 (centres undefined)
Activity [1]: 21%
Activity [7]: Tde
Activity [2]: 99%

Cc1cc(-c2nc(Nc3ccn(C4CCN(CC5CCN(c6ccc7c(c6)C(=O)N(C6CCC(=O)NC6=O)C7=O)CC5)CC4)n3)ncc2F)ccc1CNC(=O)c1nc(C(C)(C)C)no1 (centres undefined)
Activity [1]: 99%
Activity [2]: 99%

Cc1cc(-c2nc(Nc3cnn(C4CCN(CC5CCN(c6ncc(-c7ccc(=O)[nH]n7)cc6F)CC5)CC4)c3)ncc2F)ccc1CNC(=O)c1cn(C(C)(C)C)nn1
Activity [1]: 48%

Cc1cc(-c2nc(Nc3cnn(C4CCN(C(=O)CCC(=O)N[C@@H](C)C(=O)N[C@H]5CCC(=O)NC5=O)CC4)c3)ncc2F)ccc1CNC(=O)c1cn(C(C)(C)C)nn1
Activity [1]: 32%

C=CC(=O)Nc1cccc(Nc2nc(Nc3ccc(N4CCN(CC5CCN(c6ccc7c(c6)C(=O)N(C6CCC(=O)NC6=O)C7=O)CC5)CC4)cc3)ncc2F)c1 (centres undefined)
Activity [1]: 28%

O=C1CCC(N2C(=O)c3ccc(N4CC(CN5CCC(C#Cc6ccc(Nc7ncc(F)c(N8CCC(CO)CC8)n7)cn6)CC5)C4)cc3C2=O)C(=O)N1 (centres undefined)
Activity [1]: 20%

Cc1cc(-c2nc(Nc3ccn(C4CN(CC5CCN(c6ccc7c(c6)C(=O)N(C6CCC(=O)NC6=O)C7=O)CC5)C4)n3)ncc2F)ccc1CNC(=O)c1cn(C2CC2)nn1 (centres undefined)
Activity [1]: 97%
Activity [2]: 92%

C=CC(=O)N1CCC[C@@H](n2nc(-c3ccc(Oc4ccccc4)cc3)c3c(N)ncnc32)C1 [IBRUTINIB]
AUC(0-inf) [16]: 11700 ng·h/mL
Cmax [17]: 3460 ng/mL
AUC(0-t) at 48 h [18]: 11200 ng·h/mL

Cc1cc(-c2nc(Nc3ccn(C4CN(CC5CCN(c6ccc7c(c6)C(=O)N(C6CCC(=O)NC6=O)C7=O)CC5)C4)n3)ncc2F)ccc1CNC(=O)c1cnc(C(C)(C)C)s1 (centres undefined)
Activity [1]: 95%
Activity [2]: 75%

Cc1cc(-c2nc(Nc3cnn(C4CN(CC5CCN(c6ccc7c(c6)C(=O)N(C6CCC(=O)NC6=O)C7=O)CC5)C4)c3)ncc2F)ccc1CNC(=O)c1cn(C(C)(C)C)nn1 (centres undefined)
Activity [6]: Active
Activity [1]: 99%
Activity [7]: Tde
DC50 [3]: 2.49 nM
Activity [2]: 99%
T1/2 [4]: 0.71 h
TIME [5]: < 0.5 h

O=C1CCC(N2C(=O)c3ccc(N4CC(CN5CCN(c6ccc(Nc7ncc(F)c(N8CCC(CO)CC8)n7)cc6)CC5)C4)cc3C2=O)C(=O)N1 (centres undefined)
Activity [1]: < 10%

Cc1cc(-c2nc(Nc3cnn(C4CCN(CC5CCN(c6ccc7c(c6)C(=O)N(C6CCC(=O)NC6=O)C7=O)CC5)CC4)c3)ncc2F)ccc1CNC(=O)c1ccc(C(C)(C)C)cc1 (centres undefined)
Activity [1]: 49%
Activity [2]: 0%

Cc1cc(-c2nc(Nc3ccn(C4CN(CC5CCN(c6ccc7c(c6)C(=O)N(C6CCC(=O)NC6=O)C7=O)CC5)C4)n3)ncc2F)ccc1CNC(=O)c1nc(C(C)(C)C)no1 (centres undefined)
Activity [1]: 99%
Activity [2]: 96%
